From ChEMBL document CHEMBL2331514, “Structure-based design and synthesis of novel pseudosaccharine derivatives as antiproliferative agents and kinase inhibitors” (Eur J Med Chem, 2013)

Test: Partition coefficient, log P of the compound
Assay type: physicochemical
Conditions: octanol/water

Compound | logP
O=C(Nc1ccc(Br)cc1)Nc1ccc(OC2=NS(=O)(=O)c3ccccc32)cc1 | 3.64
O=C(O)CCC(=O)Nc1ccc2c(c1)C(Nc1cccc(Br)c1)=NS2(=O)=O | 1.26
CCOC(=O)C(=CNc1ccc2c(c1)C(Nc1cccc(Br)c1)=NS2(=O)=O)C(=O)OCC | 2.48
CCOC(=O)C(=CNc1ccc2c(c1)C(Nc1ccc(Cl)cc1)=NS2(=O)=O)C(=O)OCC | 2.39
O=C(Nc1ccccc1)Nc1ccc2c(c1)C(Nc1ccc(Cl)cc1Cl)=NS2(=O)=O | 3.57
O=C(Nc1ccc(Cl)cc1)Nc1ccc(OC2=NS(=O)(=O)c3ccccc32)cc1 | 3.55
